Data published in patent publication US9856279B2 (AGIOS PHARMACEUTICALS, INC, priority 2011, dated 2018).
Where two headings read alike, the source gives them in different places.

Target: IDH1 R132H (Homo sapiens, UniProt O75874, R132H)
Assay: Assay for IDH1 R132H inhibitors (NADPH/aKG, resazurin detection)
Assay type: biochemical
Outline: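 Read-out is resorufin fluorescence (Ex544/Em590) 5 min after adding a 30 μM resazurin detection mix. Before that, mutant enzyme (0.2 μg/ml in its mix) ran 50 min at room temperature with compound, 8 uM NADPH and 2 mM aKG (mix levels) in Tris pH 7.5 with NaCl, MgCl2, BSA.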

[1] = Table 3, enzyme assay, 50 minutes at room temperature, read-out: IC50 (IDH1 R132H Inhibition)
[2] = enzyme assay of Example 12, read-out: IDH1R132H IC50

IDH1 R132H, sequence (O75874 whole entry R132H): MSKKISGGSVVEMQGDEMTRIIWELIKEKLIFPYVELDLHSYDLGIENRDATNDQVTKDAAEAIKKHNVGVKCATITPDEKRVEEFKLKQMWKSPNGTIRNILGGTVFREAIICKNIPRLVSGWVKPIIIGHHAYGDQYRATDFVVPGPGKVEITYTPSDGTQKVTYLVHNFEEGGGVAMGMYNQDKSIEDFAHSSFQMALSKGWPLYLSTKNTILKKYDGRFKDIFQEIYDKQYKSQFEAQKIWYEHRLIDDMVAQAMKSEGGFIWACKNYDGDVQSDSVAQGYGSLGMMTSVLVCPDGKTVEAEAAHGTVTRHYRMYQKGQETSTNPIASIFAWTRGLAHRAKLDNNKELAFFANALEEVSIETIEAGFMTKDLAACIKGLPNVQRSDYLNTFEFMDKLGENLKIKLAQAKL

Row | IC50 [1] | IC50 [2] | SMILES
1 | 1000 to 5000 nM | – | COCCC(=O)N1CCN(c2nc(C(C)C)c(-c3ccc(Cl)cc3)cc2C#N)C[C@H]1C [Compound 215, (R)-5-(4-chlorophenyl)-6-isopropyl-2-(4-(3-methoxypropanoyl)-3-methylpiperazin-1-yl)nicotinonitrile]
2 | 1000 to 5000 nM | – | COCCC(=O)N1CCN(c2nc(C(C)C)c(-c3ccncc3)cc2C#N)C[C@H]1C [Compound 213, (R)-2-isopropyl-6-(4-(3-methoxypropanoyl)-3-methylpiperazin-1-yl)-3,4′-bipyridine-5-carbonitrile]
3 | 5000 to 15000 nM | – | CC(C)c1cc(-c2cccc(F)c2)c(C#N)c(N2CCN(C(=O)c3c[nH]c4ccccc34)C(C)C2)n1 (stereo not shown) [Compound 129, 2-(4-(1H-indole-3-carbonyl)-3-methylpiperazin-1-yl)-4-(3-fluorophenyl)-6-isopropylnicotinonitrile]
4 | – | 500 to 1000 nM | COCCC(=O)N1CCN(c2nc(C3CC3)c(-c3ccccc3CO)cc2C#N)C[C@H]1C [Compound 344, (R)-6-cyclopropyl-5-(2-hydroxymethyl-phenyl)-2-[4-(3-methoxy-propionyl)-3-methyl-piperazin-1-yl]-nicotinonitrile]
5 | 1000 to 5000 nM | – | Cc1occc1C(=O)N1CCN(c2nc(C(C)C)c(-c3ccc(C(C)C)cc3)cc2C#N)C[C@H]1C [Compound 202, (R)-6-isopropyl-5-(4-isopropylphenyl)-2-(3-methyl-4-(2-methylfuran-3-carbonyl)piperazin-1-yl)nicotinonitrile]
6 | – | < 500 nM | N#Cc1cc(-c2cccc3nccnc23)c(C2CC2)nc1N1CCN(C(=O)C2CC2)[C@H](C2CC2)C1 [Compound 531, (R)-2-(4-(cyclopropanecarbonyl)-3-cyclopropylpiperazin-1-yl)-6-cyclopropyl-5-(quinoxalin-5-yl)nicotinonitrile]
7 | – | 500 to 1000 nM | CCOC(=O)[C@@H]1C[C@H]1C(=O)N1CCN(c2nc(C3CC3)c(-c3cccc4cnccc34)cc2C#N)C[C@H]1C [Compound 435, (1R,2R)-ethyl 2-((R)-4-(3-cyano-6-cyclopropyl-5-(isoquinolin-5-yl)pyridin-2-yl)-2-methylpiperazine-1-carbonyl)cyclopropanecarboxylate]
8 | – | < 500 nM | N#Cc1cc(-c2cccc3cnccc23)c(C2CC2)nc1N1CCN(C(=O)C2CC2)C(C(F)(F)F)C1 (stereo not shown) [Compound 397, 2-(4-(cyclopropanecarbonyl)-3-(trifluoromethyl)piperazin-1-yl)-6-cyclopropyl-5-(isoquinolin-5-yl)nicotinonitrile]
9 | – | < 500 nM | COCCC(=O)N1CCN(c2nc(C3CC3)c(-c3ccccc3CCOC)cc2C#N)C[C@H]1C [Compound 338, (R)-6-cyclopropyl-5-[2-(2-methoxy-ethyl)-phenyl]-2-[4-(3-methoxy-propionyl)-3-methyl-piperazin-1-yl]-nicotinonitrile]
10 | 1000 to 5000 nM | – | CC(C)c1cc(-c2ccccc2)c(C#N)c(N2CCN(C(=O)c3ccco3)C(C)C2)n1 (stereo not shown) [Compound 107, 2-(4-(furan-2-carbonyl)-3-methylpiperazin-1-yl)-6-isopropyl-4-phenylnicotinonitrile]
11 | – | 500 to 1000 nM | COCCC(=O)N1CCN(c2nc(C3CC3)c(OC(C)c3cccc(Cl)c3)cc2C#N)C[C@H]1C (stereo partly drawn) [Compound 310, 5-(1-(3-chlorophenyl)ethoxy)-6-cyclopropyl-2-((R)-4-(3-methoxypropanoyl)-3-methylpiperazin-1-yl)nicotinonitrile]
12 | – | < 500 nM | C[C@@H]1CN(c2nc(C3CC3)c(-c3cccc4cnccc34)cc2C#N)CCN1C(=O)[C@@H]1C[C@H]1CO [Compound 505, 6-cyclopropyl-2-((R)-4-((1R,2R)-2-(hydroxymethyl)cyclopropanecarbonyl)-3-methylpiperazin-1-yl)-5-(isoquinolin-5-yl)nicotinonitrile]
13 | 5000 to 15000 nM | – | COc1ccccc1-c1cc(C(C)C)nc(N2CCN(C(=O)c3ccco3)C(C)C2)c1C#N (stereo not shown) [Compound 147, 2-(4-(furan-2-carbonyl)-3-methylpiperazin-1-yl)-6-isopropyl-4-(2-methoxyphenyl)nicotinonitrile]
14 | – | 500 to 1000 nM | CS(=O)(=O)n1cc(-c2cc(C#N)c(N3CCN(C(=O)C4CC4)[C@H](C4CC4)C3)nc2C2CC2)cn1 [Compound 502, (R)-2-(4-(cyclopropanecarbonyl)-3-cyclopropylpiperazin-1-yl)-6-cyclopropyl-5-(1-(methylsulfonyl)-1H-pyrazol-4-yl)nicotinonitrile]
15 | – | < 500 nM | N#Cc1cc(-c2cc(C#N)c(N3CCN(C(=O)C4CC4)[C@H](C4CC4)C3)nc2C2CC2)cnn1 [Compound 641, (R)-5-(5-cyano-6-(4-(cyclopropanecarbonyl)-3-cyclopropylpiperazin-1-yl)-2-cyclopropylpyridin-3-yl)pyridazine-3-carbonitrile]
16 | 1000 to 5000 nM | – | CC(C)c1cc(-c2cccc(F)c2)c(C#N)c(N2CC(C)N(C(=O)c3ccoc3)C(C)C2)n1 (stereo not shown) [Compound 134, 4-(3-fluorophenyl)-2-(4-(furan-3-carbonyl)-3,5-dimethylpiperazin-1-yl)-6-isopropylnicotinonitrile]
17 | – | 500 to 1000 nM | COCCC(=O)N1CCN(c2nc(C3CC3)c(-c3cccc4nonc34)cc2C#N)C[C@H]1C [Compound 437, (R)-5-benzo[1,2,5]oxadiazol-4-yl-6-cyclopropyl-2-[4-(3-methoxy-propionyl)-3-methyl-piperazin-1-yl]-nicotinonitrile]
18 | – | 500 to 1000 nM | N#Cc1cc(-c2cccc3cnccc23)c(C2CC2)nc1N1CCN(C(=O)C2CC2)CC(F)C1 (stereo not shown) [Compound 477, 2-(4-(cyclopropanecarbonyl)-6-fluoro-1,4-diazepan-1-yl)-6-cyclopropyl-5-(isoquinolin-5-yl)nicotinonitrile]
19 | 1000 to 5000 nM | – | CC(C)c1nc(N2CCN(C(=O)c3ccoc3)[C@H](C(C)C)C2)c(C#N)cc1-c1ccc(C(F)(F)F)cc1 [Compound 195]
20 | 1000 to 5000 nM | – | CC(C)c1nc(N2CCN(C(=O)c3ccoc3)[C@@H](C)C2)c(C#N)cc1-c1ccccc1 [Compound 144, (S)-2-(4-(furan-3-carbonyl)-3-methylpiperazin-1-yl)-6-isopropyl-5-phenylnicotinonitrile]
21 | ≤ 1000 nM | – | COCCC(=O)N1CCN(c2nc(C3CC3)c(-c3ccc(OC)nc3)cc2C#N)C[C@H]1C [Compound 252, (R)-2-cyclopropyl-6′-methoxy-6-(4-(3-methoxypropanoyl)-3-methylpiperazin-1-yl)-3,3′-bipyridine-5-carbonitrile]
22 | 5000 to 15000 nM | – | CC(C)c1nc(N2CCN(C(=O)c3ccco3)C(C)C2)c(C#N)cc1-c1ccccc1 (stereo not shown) [Compound 119, 2-(4-(furan-2-carbonyl)-3-methylpiperazin-1-yl)-6-isopropyl-5-phenylnicotinonitrile]
23 | 5000 to 15000 nM | – | COCCC(=O)N1CCN(c2nc(C(C)C)c(-c3cncnc3)cc2C#N)C[C@H]1C [Compound 210, (R)-6-isopropyl-2-(4-(3-methoxypropanoyl)-3-methylpiperazin-1-yl)-5-0γ(pyrimidin-5-yl)nicotinonitrile]
24 | – | < 500 nM | N#Cc1cc(-c2ccc3[nH]ncc3c2)c(C2CC2)nc1N1CCN(C(=O)CC(F)(F)F)[C@H](C2CC2)C1 [Compound 552]
25 | – | < 500 nM | C=Cc1ccnc(Nc2cc(C#N)c(N3CCN(C(=O)/C=C/CCO)[C@H](C(C)C)C3)nc2C2CC2)c1 [Compound 791, (R,E)-6-cyclopropyl-2-(4-(5-hydroxypent-2-enoyl)-3-isopropylpiperazin-1-yl)-5-((4-vinylpyridin-2-yl)amino)nicotinonitrile]
